Data taken from ChEMBL document CHEMBL3886157, “Heterocyclic carboxamides as modulators of kinase activity” (2015).

Experiments:
[1] = target: RAC-alpha serine/threonine-protein kinase (Homo sapiens, UniProt P31749); assay: AKT Enzyme Assay: A TTP Mosquito liquid handling instrument is used to place […] of the appropriate concentration of inhibitor in 100% DMSO (for a dose response curve calculation) into each well of a 384-well plate. To this reaction components are added to a final volume of 12.50 0.1 ng/uL His-AKT (Full Length), (Invitrogen, Part # P2999, Lot #641228C). 160 uM ATP (Fluka, 02055) 1 mM DTT (Sigma, D0632) 1 mM MgCl2 (Sigma, M1028) 1 uM substrate peptide (sequence FITC-AHA-[…]-NH2), synthesized by Tufts Peptide Synthesis service. 100 mM HEPES pH 7.5 (Calbiochem, 391338) 0.015% Brij-35 (Sigma, B4184)The reaction is incubated for 90 min at 25° C, and then stopped by the addition of 70 ul of Stop buffer (100 mM HEPES pH 7.5, 0.015% Brij-35, 10 mM EDTA (Sigma, E7889)).The plate is read on a Caliper LC 3000 in an Off-Chip mobility shift assay format, using the following parameters for a 12-sipper chip: screening pressure -2.3 psi, upstream voltage -500, and downstream voltage -3000.
Sequence of RAC-alpha serine/threonine-protein kinase (P31749 whole entry): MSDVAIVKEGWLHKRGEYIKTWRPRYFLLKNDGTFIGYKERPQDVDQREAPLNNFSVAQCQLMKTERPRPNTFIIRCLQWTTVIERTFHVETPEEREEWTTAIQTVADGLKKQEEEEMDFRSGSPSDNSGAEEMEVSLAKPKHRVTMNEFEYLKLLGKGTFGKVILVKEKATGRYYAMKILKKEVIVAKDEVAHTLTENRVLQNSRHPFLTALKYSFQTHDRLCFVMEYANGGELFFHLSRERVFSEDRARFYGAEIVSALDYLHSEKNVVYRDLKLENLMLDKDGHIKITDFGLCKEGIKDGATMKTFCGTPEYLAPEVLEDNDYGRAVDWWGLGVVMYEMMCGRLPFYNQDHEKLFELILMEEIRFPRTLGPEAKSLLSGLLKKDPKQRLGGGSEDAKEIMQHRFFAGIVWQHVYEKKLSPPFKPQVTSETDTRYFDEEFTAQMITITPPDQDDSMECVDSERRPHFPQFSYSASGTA

[2] = target: Ribosomal protein S6 kinase beta-1 (Homo sapiens, UniProt P23443, T412E); assay: P70S6K Enzyme Assay: P70S6K inhibitor compounds are diluted and plated in 96 well plates. A reaction mixture including the following components is then added to the compound plate to initiate the enzyme reaction; P70S6K (3 nM, T412E mutant, Millipore) is mixed with 24 uM ATP in an assay buffer containing 100 mM Hepes (pH 7.5), 5 mM MgCl2, 1 mM DTT, 0.015% Brij and 1 uM of the substrate peptide FITC-AHA-[…]-OH (derived from the S6 ribosomal protein sequence, FITC=fluorescein isothiocyanate, AHA=6-aminohexanoic acid). The reaction is incubated for 90 min at 25° C., before the addition of 10 mM EDTA to stop the reaction. The proportion of substrate and product (phosphorylated) peptide is analysed on a Caliper Life Sciences Lab Chip 3000, using a pressure of -1.4 psi, and upstream and downstream voltages of -3000 and -700 respectively. Product peaks are resolved before substrate peaks on the resulting chromatograms.
Sequence of Ribosomal protein S6 kinase beta-1 (P23443 whole entry T412E): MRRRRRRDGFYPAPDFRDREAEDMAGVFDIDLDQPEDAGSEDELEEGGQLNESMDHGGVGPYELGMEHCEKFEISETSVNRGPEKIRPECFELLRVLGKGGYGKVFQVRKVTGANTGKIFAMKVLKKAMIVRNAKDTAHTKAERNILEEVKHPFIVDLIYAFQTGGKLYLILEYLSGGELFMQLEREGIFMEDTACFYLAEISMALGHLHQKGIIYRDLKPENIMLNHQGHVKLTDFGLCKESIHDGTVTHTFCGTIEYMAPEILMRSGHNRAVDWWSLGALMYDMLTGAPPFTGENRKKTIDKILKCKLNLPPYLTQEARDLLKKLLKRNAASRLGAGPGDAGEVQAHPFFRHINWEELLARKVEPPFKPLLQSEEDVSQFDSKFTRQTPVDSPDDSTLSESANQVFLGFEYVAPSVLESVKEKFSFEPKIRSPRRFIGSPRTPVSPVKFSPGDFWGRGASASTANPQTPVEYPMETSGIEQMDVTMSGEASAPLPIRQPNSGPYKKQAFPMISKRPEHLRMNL

| SMILES | IC50 [1] [nM] | IC50 [2] [nM] |
| --- | --- | --- |
| NC(=O)c1ccc(NCCc2ccc(Cl)c(Cl)c2)c2cncnc12 | > 100000 | 98 |
| NC(=O)c1ccc(N2CCN(c3ccc(Cl)c(Cl)c3)CC2)c2cncnc12 | > 100000 | > 100000 |
| NC(=O)c1ccc(NCc2ccccc2)c2cncnc12 | 57000 | 690 |
| CNC[C@@H](Nc1ccc(C(N)=O)c2ncncc12)c1cccc(F)c1 | – | > 1000 |
| NC(=O)c1ccc(NC(=O)C2CNC[C@@H]2c2cccc(F)c2)c2cccnc12 (some centres not stated) | – | > 1000 |
| CN(Cc1ccc(Cl)c(Cl)c1)C1CCN(c2ccc(C(N)=O)c3ncncc23)C1 (racemic) | – | 570 |
| NC(=O)c1ccc(NCC(c2ccccc2)N2CCNCC2)c2cncnc12 (racemic) | – | 170 |
| NC(=O)c1ccc(N2CCC(N)(C(=O)Nc3ccc(F)c(C(F)(F)F)c3)C2)c2cncnc12 (racemic) | – | 270 |
| NC(=O)c1ccc(N2CCC(NCc3ccc(Cl)c(Cl)c3)C2)c2cncnc12 (racemic) | – | 490 |
